According to patent US7285392B2, “Methods for identifying active compounds” (Biovitrum AB, priority 2003, dated 2007):

How the values were obtained:
[1] = system: protein interactions with OCT1 DNA probe; experiment: EMSA with OCT1 DNA probe, nuclear extracts of WRL-68 cells; format: cell-based, human; conditions: stimulated
Experimental: (§1) Cell culture: WRL-68 cells, a human fetal hepatic cell-line, were cultured in EMEM medium with NaHCO3 (Statens Veterinärmedicinska Anstalt), supplemented with 10% fetal bovine serum (FBS), 2% L-Glutamine, 1% Pyruvate and 1% Non essential amino acids (NEA), all from GIBCO. The cells were sub-cultivated twice weekly by trypsination to maintain a cell density of approximately 80%.
(§2) Transfection: Cells were transfected with human full-length GH-receptor (pMB1288, 2 μg/μl) by using DOTAP Liposomal Transfection Reagent (Roche), according to manufacturers manual. With this reagent a cationic liposome-mediated transfection method (lipofection) is used. […]
(§3) Extraction of nuclear proteins: To extract the proteins from the nuclei, the nuclear pellets were re-suspended in 2×lysis buffer with protease and phosphatase inhibitors (100 mM HEPES, pH 7.6, 300 mM NaCl, 10 mM EDTA (GIBCO), 2% Triton X-100 (Sigma), 0.2 mM PMSF, 0.2 mM sodium orto-vanadate, 2 nM okadaic acid, 1×complete), or EMSA buffer with inhibitors (20 mM Tris pH 8.0, 1.5 mM MgCl2, 0.2 mM EDTA, 25% glycerol, 0.5 mM PMSF, 0.2 mM sodium ortho-vanadate, 2 nM okadaic acid, 1×complete protease inhibitor), depending on whether the samples should also be used in electrophoresis mobility shift assays (EMSA) or not. For an optimal protein extraction, three different methods were evaluated. […]

[2] = system: protein interactions with AP2 DNA probe; experiment: EMSA with AP2 DNA probe, nuclear extracts of GHR-transfected WRL-68 cells; format: cell-based, human; conditions: stimulated
Experimental: as §1, §2, §3

[3] = system: AP1 transcription factor binding to AP1 DNA probe; experiment: EMSA with AP1 DNA probe (control), nuclear extracts of non-transfected WRL-68 cells; format: cell-based, human; conditions: stimulated
Experimental: as §1
(§4) Stimulation: Cells were stimulated two days after transfection at a confluence of approximately 80%. […]
(§5) Extraction of nuclear proteins: To extract the proteins from the nuclei, the nuclear pellets were re-suspended in 2×lysis buffer with protease and phosphatase inhibitors (100 mM HEPES, pH 7.6, 300 mM NaCl, 10 mM EDTA (GIBCO), 2% Triton X-100 (Sigma), 0.2 mM PMSF, 0.2 mM sodium orto-vanadate, 2 nM okadaic acid, 1×complete), or EMSA buffer with inhibitors (20 mM Tris pH 8.0, 1.5 mM MgCl2, 0.2 mM EDTA, 25% glycerol, 0.5 mM PMSF, 0.2 mM sodium ortho-vanadate, 2 nM okadaic acid, 1×complete protease inhibitor), depending on whether the samples should also be used in electrophoresis mobility shift assays (EMSA) or not. For an optimal protein extraction, three different methods were evaluated. […] Optimal extraction was evaluated by Western blot and protein concentration determination as described below. […]

[4] = system: protein-DNA binding to OCT1 DNA probe; experiment: EMSA with OCT1 DNA probe, HX rat liver nuclear extracts; set-up: species or system Sprague Dawley rat; conditions: HX rats stimulated with hGH vs control animals
Experimental: (§6) Nuclear and cytosolic fractions were prepared from hypophysectomized Sprague Dawley rat livers (ethical license N176/02). The rats had minipumps implanted at 5 weeks of age for administration of hGH. Control animals were not stimulated and thus completely GH-deficient while GH-animals were stimulated continuously with hGH 0.12 mg/kg/day for five days. Animals were anaesthetized and livers were cut out and placed in ice-cold PBS. Livers were then cut into smaller pieces and transferred to 8 ml ice-cold hypotonic buffer with protease and phosphatase inhibitors and were allowed to swell on ice for 10 minutes. […]
as §3

[5] = system: protein-DNA interaction with AP2 DNA probe; experiment: EMSA with AP2 DNA probe, HX rat liver nuclear extracts; set-up: species or system Sprague Dawley rat; conditions: hGH stimulated animals compared to control animals
Experimental: as §6, §3

[6] = system: protein interactions with GHRE DNA probe; experiment: EMSA with GHRE DNA probe, nuclear extracts of GHR-transfected and non-transfected WRL-68 cells; format: cell-based, human
Experimental: as §1
Transfection: Cells were transfected with human full-length GH-receptor (pMB1288, 2 μg/μl) by using DOTAP Liposomal Transfection Reagent (Roche), according to manufacturers manual. With this reagent a cationic liposome-mediated transfection method (lipofection) is used. T75 flasks with WRL-68 cells were transfected with 10 μg DNA for each flask. 5 μl (10 μg) DNA was diluted with 250 μl OPTIMEM1 medium (GIBCO) and mixed gently with 75 μl DOTAP reagent diluted in 175 μl OPTIMEM1 medium. The mixture was incubated for 10 minutes and then mixed gently with 10 ml OPTIMEM1 medium. Cells were washed once and then incubated for 4 hours with the DNA/DOTAP transfection mix, which was then changed to fresh culture medium. Cells were re-seeded into new culture dishes the following day.
as §4, §5

[7] = system: protein-DNA binding to GHRE DNA probe; experiment: EMSA with GHRE DNA probe, HX rat liver nuclear extracts; set-up: species or system Sprague Dawley rat; conditions: HX rats stimulated with hGH vs control animals
Experimental: as §6, §3

[8] = molecular target: T1, GH receptor interaction with other transcription factors (Homo sapiens, UniProt P10912); experiment: Electrophoretic mobility shift assays, GH-receptor transfected cells (summary); format: cell-based; conditions: treatment with BVTA
T1 construct: Cells were transfected with human full-length GH-receptor (pMB1288, 2 μg/μl); expressed in transfected cells; host or cells: WRL-68 (human fetal hepatic cell line), plasmid pMB1288
T1 sequence (P10912 19-638): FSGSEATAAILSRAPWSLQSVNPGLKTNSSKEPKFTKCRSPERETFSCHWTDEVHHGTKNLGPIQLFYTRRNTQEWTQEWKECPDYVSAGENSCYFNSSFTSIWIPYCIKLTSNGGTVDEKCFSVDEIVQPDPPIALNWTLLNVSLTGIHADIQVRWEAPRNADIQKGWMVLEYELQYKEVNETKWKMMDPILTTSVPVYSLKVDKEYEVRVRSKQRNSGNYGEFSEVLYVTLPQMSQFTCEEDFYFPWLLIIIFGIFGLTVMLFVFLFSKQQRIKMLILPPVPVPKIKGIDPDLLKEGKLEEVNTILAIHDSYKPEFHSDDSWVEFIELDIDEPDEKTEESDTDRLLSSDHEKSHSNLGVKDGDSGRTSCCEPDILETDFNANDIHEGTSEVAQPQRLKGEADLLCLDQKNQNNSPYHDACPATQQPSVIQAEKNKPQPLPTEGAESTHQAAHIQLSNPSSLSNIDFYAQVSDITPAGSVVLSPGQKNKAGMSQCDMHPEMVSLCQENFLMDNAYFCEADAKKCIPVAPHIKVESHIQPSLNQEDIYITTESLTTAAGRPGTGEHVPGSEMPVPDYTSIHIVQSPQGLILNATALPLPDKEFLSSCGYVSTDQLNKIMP
Experimental: Electrophoretic Mobility Shift Assay: Electrophoretic Mobility Shift Assay (EMSA) is a method used to investigate protein-DNA interactions. A DNA probe with a known sequence is end-labeled with ^33P-ATP and then incubated with nuclear extracts. Proteins that bind specifically to the DNA-probe will reduce the mobility of the complex when separated on a non-denaturing poly acryl-amid gel and a shifted band can be seen. To identify proteins bound to the DNA-probe, an antibody can be added to the nuclear extract before incubation with the DNA-probe. If the antibody recognizes a protein that binds to the DNA, the mobility of the complex will be reduced even further and cause a supershift.

[9] = system: GH-inducible mRNA; experiment: GH-inducible mRNA level; format: cell-based

Row | Molecule | protein-DNA interaction, top specific band, OCT1 probe [1] | protein-DNA interaction, top specific band, AP2 probe [2] | effect on AP1 shifted band [3] | protein-DNA binding, OCT1 probe, hGH stimulation [4] | protein-DNA binding, AP2 probe, hGH stimulation [5] | effect of stimulation on shifted bands, GHRE probe ([6]; both GHR-transfected and non-transfected WRL-68 cells) | protein-DNA binding, GHRE probe, hGH stimulation [7] | interaction of GH receptor with other transcription factors [8] | GH-inducible mRNA [9] | protein-DNA interaction in top shifted band, GHRE probe ([6]; GHR-transfected WRL-68 cells stimulated with BVTA) | effect on GHRE top weak band ([6]; non-transfected WRL-68 cells, stimulated)
1 | hGH: human growth hormone (Genotropin, Pharmacia) | No effects | no effects | no effects | did not show any differences | No difference in protein-DNA binding | No effect | did not show any differences | – | – | – | –
2 | Cc1ccc(S(N)(=O)=O)cc1NC(=O)c1ccc(Br)o1 [BVTA, N-[5-(aminosulfonyl)-2-methylphenyl]-5-bromo-2-furamide] | decreased | broke the protein-DNA interaction | no effects | – | – | – | – | down regulated | decrease | disrupted | no effect
